This assay deals with ERCC2-deficient fibroblast cell line (GM08207) expressing GFP, WT ERCC2 or mutant ERCC2. Nature of the assay: Cisplatin sensitivity assay (CellTiter-Glo survival, 120 hours). The format is cell-based, human. On the procedure: The expression plasmids harboring WT ERCC2, GFP (negative control), or mutant ERCC2s were expanded in E. coli TOP10 cells (Invitrogen) and purified using an anion exchange kit (Qiagen). Lentiviruses were propagated in 293T cells by cotransfection of the expression plasmid with plasmids encoding viral packaging and envelope proteins. Unless otherwise noted, all human cell lines were cultured in Dulbecco's Modified Eagle's Medium (Invitrogen) supplemented with 10% fetal bovine serum (Sigma) and 1% L-glutamine and grown at 37° C. and 5% CO2. The 293T cell supernatants containing virus were collected after 48 hours, filtered twice (0.45 μm syringe filter, Millipore), then added directly to growing cultures of an SV40-transformed pseudodiploid ERCC2-deficient fibroblast cell line derived from an XP patient of genetic complementation group D (GM08207; Coriell Institute). Polybrene® (Sigma) was added to a final concentration of 8 μg/ml to increase the efficiency of infection. […]
Cells were transferred to 96-well plates at a density of 500 cells per well. […] After 120 hours, CellTiter-Glo reagent (Promega) was added to the wells and the plates were scanned using a luminescence microplate reader (BioTek). […] IC50 concentrations were calculated using a four parameter sigmoidal model and plots were generated using Prism (GraphPad). […]
A general note: ATP-based viability assays read luminescence as a measure of living cells.

Each structure is given as a SMILES string.

As for `N.N.[Cl][Pt][Cl]` [cisplatin], the “cisplatin IC50” value reads like this: (WT ERCC2 complemented cell line compared with ERCC2-deficient parent cell line, P=0.0003, ANOVA) “significantly higher”; (each mutant ERCC2 cell line (five mutants) compared with parent ERCC2-deficient cell line) “not significantly different”.
